Read-outs that look alike come from different tables or passages of the source.
Tests used:
LXR β LBD protein [1] = target: T1, LXR β LBD protein (Homo sapiens (Human), UniProt P55055); assay: biochemical; format: binding
Target sequence in this assay (P55055 222-460 limits assumed): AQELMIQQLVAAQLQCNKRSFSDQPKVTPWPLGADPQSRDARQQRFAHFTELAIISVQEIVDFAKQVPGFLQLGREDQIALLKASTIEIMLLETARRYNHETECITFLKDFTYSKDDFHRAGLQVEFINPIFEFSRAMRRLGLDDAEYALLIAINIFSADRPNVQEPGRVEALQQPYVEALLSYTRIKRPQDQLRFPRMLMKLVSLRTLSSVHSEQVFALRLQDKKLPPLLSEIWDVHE

[2] = target: T2, Gal4 DNA binding domain fused to the LBD of LXRα in HEK293 cells (Homo sapiens (Human), UniProt Q13133); assay: LXR luciferase transcriptional reporter gene assay, agonist mode, LXRα; format: cell-based; conditions: for EC50: read-out: Cell LXRα EC50
[3] = target: T3, Gal4 DNA binding domain fused to the LBD of LXRβ in HEK293 cells (Homo sapiens (Human), UniProt P55055); assay: cell-based; format: cell-based
T3 sequence (P55055 222-460 limits assumed): as above

[4] = target: T2, Gal4 DNA binding domain fused to the LBD of LXRα in HEK293 cells; assay: LXR luciferase transcriptional reporter gene assay, antagonist mode (200 nM T0901317), LXRα; format: cell-based; conditions: for IC50: read-out: Cell LXRα IC50
LXR β LBD protein [5] = target: T1, LXR β LBD protein; assay: biochemical; format: biochemical; conditions: for EC50: read-out: FRET LXRβ EC50
Target sequence in this assay (P55055 222-460): as the sequence (P55055 222-460 limits assumed) above

[6] = target: T3, Gal4 DNA binding domain fused to the LBD of LXRβ in HEK293 cells; assay: cell-based
LXR α LBD protein [7] = target: T4, LXR α LBD protein (Homo sapiens (Human), UniProt Q13133); assay: Human LXRα coactivator recruitment FRET assay, agonist mode; format: biochemical; conditions: agonist mode
T4 sequence (Q13133 209-447): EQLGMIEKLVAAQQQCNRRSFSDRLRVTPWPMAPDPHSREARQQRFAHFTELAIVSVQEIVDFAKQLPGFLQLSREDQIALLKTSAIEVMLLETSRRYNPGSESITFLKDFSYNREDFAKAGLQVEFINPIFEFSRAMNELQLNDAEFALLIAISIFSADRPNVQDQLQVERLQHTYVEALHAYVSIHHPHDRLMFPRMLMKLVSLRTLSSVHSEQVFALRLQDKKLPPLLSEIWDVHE
Summary of the method: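 LXRα- or LXRβ-LBD at 10 nM (2×) mixed with compound in DMSO, then fluorescein-SRC2-3 peptide 200 nM and Tb-anti-GST antibody 20 nM (4×) added; 2 h at rt. Time-resolved FRET read, 100 µs delay, 200 µs window; EC50 from four-parameter fit of percent control.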

LXR α LBD protein [8] = target: T4, LXR α LBD protein; assay: LXR α radioligand binding assay (SPA, competition with [3H]TO901317); conditions: read-out: LXRα Binding Ki
[9] = antagonist mode, 200 nM T0901317, HEK293 reporter gene assay
[10] = antagonist mode, 200 nM T0901317, HEK293 reporter gene assay, read-out: Cell LXRβ IC50
[11] = agonist mode, read-out: Cell LXRβ EC50

T2 sequence (Q13133 209-447): as above

Molecule | Ki (LXR β LBD protein [1]; read-out: LXRβ Binding Ki) [nM] | Cell LXRα efficacy [2] | EC50 [2] [nM] | Cell LXRβ efficacy [3, 9] | IC50 [3, 10] [nM] | Cell LXRα efficacy [4] | IC50 [4] [nM] | FRET LXRβ efficacy (LXR β LBD protein [5]; agonist mode) | EC50 (LXR β LBD protein [5]; agonist mode) [nM] | Cell LXRβ efficacy ([6]; agonist mode) | EC50 [6, 11] [nM] | EC50 (LXR α LBD protein [7]) [nM] | FRET LXRα efficacy (LXR α LBD protein [7]) [%] | IC50 [3] [nM] | EC50 [6] [nM] | further results
CS(=O)(=O)c1cc(N2CCN(C[C@H]3CC[C@@H](C(F)(F)F)CC3)[C@@H](c3ccccc3)C2)ccc1C(N)=O (single isomer, unassigned) [17-39] | 107 | 1648 (67) % | 1650 | 135% | 2660 | 9842 (125) % | 9840 | 61% | 63 | 26% | 630 | 267 | 55 |  |  | 
C[C@]1(c2ccccc2)CN(c2cccc(S(C)(=O)=O)c2)CCN1Cc1ccc(C(F)(F)F)cc1 (single isomer, unassigned) [46-21] |  | 2026 (20) % |  | 537 (75) % |  |  |  |  |  | 541 (12) % |  | 3000 | 24 | 537 | 541 | Ki (LXR β LBD protein [1]): 85 nM; EC50 ([2]; agonist mode): 2030 nM; IC50 [4, 9]: > 10000 nM; EC50 (LXR β LBD protein [5]): > 50000 nM
CS(=O)(=O)c1cccc(N2CCN(Cc3ccc(C(F)(F)F)c(F)c3)[C@@H](c3ccccc3)C2)c1 (single isomer, unassigned) [46-26] | 58 | 1479 (62) % |  | 6798 (54) % |  | 7585 (36) % |  | 411 (73) % |  | 676 (62) % |  | 2860 | 59 | 6800 | 676 | EC50 ([2]; agonist mode): 1480 nM; IC50 [4, 9]: 7580 nM; EC50 (LXR β LBD protein [5]): 411 nM
CC(C)[C@H]1CC[C@H](CN2CCN(c3cccc(S(C)(=O)=O)c3)C[C@@H]2c2ccccc2)CC1 (single isomer, unassigned) [48-15] |  | 1658 (31) % | 1660 | 60% | 455 |  | > 10000 | 32% | 197 | 21% | 564 | 2310 | 40 |  |  | 
CS(=O)(=O)c1cccc(N2CCN(C[C@H]3CC[C@H](C(F)(F)F)CC3)[C@@H](c3ccccc3)C2)c1 (single isomer, unassigned) [48-33] |  | 1245 (49) % | 1240 | 52% | 583 | 5224 (46) % | 5220 | 82% | 375 | 32% | 466 | 4870 | 74 |  |  | 
NS(=O)(=O)c1cccc(N2CCN(C[C@H]3CC[C@@H](C(F)(F)F)CC3)[C@@H](c3ccccc3)C2)c1 (single isomer, unassigned) [48-35] |  | 351 (62) % | 351 | 38% | 317 | 7574 (100) % | 7570 | 22% | 46 | 27% | 120 | 416 | 52 |  |  | 
CC(C)[C@@H]1CN(c2ccc(F)c(S(C)(=O)=O)c2)CCN1c1ccc(C(F)(F)F)cn1 [7-36, (R)-4-(4-fluoro-3-(methylsulfonyl)phenyl)-2-isopropyl-1-(5-(trifluoromethyl)pyridin-2-yl)piperazine] | 4 | 333 (106) % | 333 |  |  |  | > 10000 |  |  |  |  | 415 | 102 | > 10000 | 121 | Ki (LXR α LBD protein [8]): 30 nM; Cell LXRβ efficacy [6]: 121 (93) %
benzyl (R)-2-isobutyl-4-(3-(methylsulfonyl)phenyl)piperazine-1-carboxylate [1-13] |  | 2139 (16) % | 2140 | 132% | 756 | 4105 (131) % | 4100 | 52% | 36 | 7% | 265 | 586 | 37 |  |  | 

— patent US10144715B2, “Piperazine derivatives as liver X receptor modulators” (priority 2014, dated 2018)
